Results as given in ChEMBL document CHEMBL1201862, “PubChem BioAssay data set” (2004).
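Each compound was tested at five concentrations against cells in 96-well plates for 48 hours. GI50 is the concentration that inhibits growth by half.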 The source made the active and inactive calls. No stated cut-off is given here; in the data, active = GI50 up to about 1.1 µM and inactive = higher.

Tests used:
Experiment in all cases: NCI-60 cell line screen, 48 h
[1] = tested on: BT-549
[2] = tested on: CAKI-1
[3] = tested on: COLO 205
[4] = tested on: HOP-62
[5] = tested on: HOP-92
[6] = tested on: M14
[7] = tested on: MCF7
[8] = tested on: MDA-MB-231
[9] = tested on: Malme-3M
[10] = tested on: NCI/ADR-RES
[11] = tested on: OVCAR-4
[12] = tested on: OVCAR-5
[13] = tested on: RXF 393
[14] = tested on: SF-539
[15] = tested on: SK-MEL-2
[16] = tested on: SK-MEL-5
[17] = tested on: TK-10
[18] = tested on: UACC-62
[19] = tested on: HL-60
[20] = tested on: MOLT-4

| Structure (SMILES) | GI50 [1] | GI50 [2] | GI50 [3] | GI50 [4] | GI50 [5] | GI50 [6] | GI50 [7] | GI50 [8] | GI50 [9] | GI50 [10] | GI50 [11] | GI50 [12] | GI50 [13] | GI50 [14] | GI50 [15] | GI50 [16] | GI50 [17] | GI50 [18] | GI50 [19] | GI50 [20] |
| --- | --- | --- | --- | --- | --- | --- | --- | --- | --- | --- | --- | --- | --- | --- | --- | --- | --- | --- | --- | --- |
| O=C(C[n+]1ccc2ccccc2c1)c1ccc2ccc3ccccc3c2c1 | 11.2 µM (inactive) | 4.9 µM (inactive) | 1.07 µM (active) | 5.94 µM (inactive) | 1.62 µM (inactive) | 2.22 µM (inactive) | 2.39 µM (inactive) | 1.28 µM (inactive) | 7.71 µM (inactive) | 15.2 µM (inactive) | 3.84 µM (inactive) | 5.07 µM (inactive) | 5.02 µM (inactive) | 0.483 µM (active) | 4.56 µM (inactive) | 3.03 µM (inactive) | 1.4 µM (inactive) | 2.99 µM (inactive) | – | – |
| Nc1nc(NCC2(CO)CC(CCc3ccccc3)C2)cc(=O)[nH]1 (stereo not drawn) | > 100 µM (inactive) | > 100 µM (inactive) | > 100 µM (inactive) | > 100 µM (inactive) | > 100 µM (inactive) | > 100 µM (inactive) | > 100 µM (inactive) | > 100 µM (inactive) | > 100 µM (inactive) | > 100 µM (inactive) | > 100 µM (inactive) | > 100 µM (inactive) | > 100 µM (inactive) | – | > 100 µM (inactive) | > 100 µM (inactive) | – | > 100 µM (inactive) | 82.8 µM (inactive) | 55.2 µM (inactive) |
| O=C(/C=C1\N=C(c2ccccc2)N(c2nc3c(Cl)cc(Cl)cc3s2)C1=O)/C=C/c1ccccc1 | > 100 µM (inactive) | > 100 µM (inactive) | 47.6 µM (inactive) | > 100 µM (inactive) | > 100 µM (inactive) | > 100 µM (inactive) | 63 µM (inactive) | > 100 µM (inactive) | > 100 µM (inactive) | 83.4 µM (inactive) | > 100 µM (inactive) | > 100 µM (inactive) | 63.1 µM (inactive) | – | > 100 µM (inactive) | 56.4 µM (inactive) | > 100 µM (inactive) | 54.7 µM (inactive) | 91 µM (inactive) | 52.1 µM (inactive) |
| CCN(CC)c1ccc2c(c1)OC(=O)C(c1nnc(-c3ccc([N+](=O)[O-])cc3)o1)C2 (stereo not drawn) | > 100 µM (inactive) | > 100 µM (inactive) | > 100 µM (inactive) | > 100 µM (inactive) | > 100 µM (inactive) | > 100 µM (inactive) | > 100 µM (inactive) | > 100 µM (inactive) | > 100 µM (inactive) | > 100 µM (inactive) | > 100 µM (inactive) | > 100 µM (inactive) | > 100 µM (inactive) | – | > 100 µM (inactive) | > 100 µM (inactive) | > 100 µM (inactive) | > 100 µM (inactive) | 84.5 µM (inactive) | > 100 µM (inactive) |
| CCOC(=O)c1ccc(Nc2nc3ccccc3n3cccc23)cc1 | > 100 µM (inactive) | > 100 µM (inactive) | > 100 µM (inactive) | 25.7 µM (inactive) | 52.7 µM (inactive) | > 100 µM (inactive) | 32 µM (inactive) | 36 µM (inactive) | > 100 µM (inactive) | 38.1 µM (inactive) | – | > 100 µM (inactive) | 14.3 µM (inactive) | 35.2 µM (inactive) | 34.6 µM (inactive) | 66.8 µM (inactive) | 34.8 µM (inactive) | 40.8 µM (inactive) | < 0.01 µM (active) | > 100 µM (inactive) |
